Measurements reported in patent US11058903B2, “Methods for identifying and treating cachexia or pre-cachexia using an inhibitor of rage” (THE BROAD INSTITUTE, INC., priority 2013, dated 2021).
“Also recorded” adds a separate entry of the source.

Key:
pancreatic cancer cells = assay: CellTiter Glo cell number assay, chemotherapy with or without soluble RAGE; type: cell-based; details: treated for 5 days; Gemcitibine alone or with increasing doses of recombinant human soluble RAGE
MEK/ERK = assay: Western blot of phosphorylated MEK and ERK in muscle cells exposed to cachexia-inducing conditioned media (CI-CM); type: cell-based, human; details: FIG. 20; for CI-CM stimulated phosphorylation of ERK: human muscle cells stimulated by CI-CM; for MEK/ERK activation (pMEK, pERK) by cachexia stimuli in CI-CM: muscle cells exposed to CI-CM, relative to NCI-CM, Western blot
From the text: FIG. 20 is an image of a Western blot showing phosphorylated MEK (pMEK) and phosphorylated ERK (pERK) in muscle cells exposed to cachexia-inducing conditioned media (CI-CM), either in the absence or presence of the MEK/ERK inhibitors, PD184352 (PD184) and trametinib (Tram). Also shown are pMEK and pERK levels in muscle cells exposed to non-cachexia-inducing conditioned media (NCI-CM).
Inhibition of MEK by exposure to PD1 84352 or trametinib blocked CI-CM stimulated phosphorylation of ERK (FIG. 20).

HSkM cells = assay: In-Cell Western of myosin heavy chain (MyoHC) content in muscle cells exposed to CI-CM; type: cell-based, human
From the text: FIG. 21 is a chart showing the quantification of myosin heavy chain (MyoHC) content determined by In-Cell Western analysis of in vitro HSkM cells treated with media conditioned by cachexia-inducing MkN1 and G361 cells and in vitro HSkM cells treated with media conditioned by non-cachexia-inducing 293 cells, either in the presence or absence of a MEK/ERK inhibitor PD184352 (PD184).
FIG. 22 is a chart showing the myosin heavy chain (MyoHC) content determined by In-Cell Western analysis of in vitro HSkM cells pre-treated (for 2 days) or not pre-treated with cachexia-inducing conditioned media (“CI-CM”), either in the presence or absence of an ERK1/2 inhibitor, SCH772984 (SCH2984).
FIGS. 23A and 23B are a series of charts showing the dose response of myosin heavy chain (MyoHC) content determined by In-Cell Western analysis of muscle cells treated with a RAGE Anti-Peptide (FIG. 23A) or an anti-RAGE mAb (FIG. 23B), either in the absence or presence of cachexia-inducing conditioned media (CI-CM).
FIG. 24 is a chart showing the dose response of myosin heavy chain (MyoHC) content determined by In-Cell Western analysis of muscle cells treated with a recombinant soluble RAGE, either in the presence of cachexia-inducing conditioned media (CI-CM) or non-cachexia-inducing conditioned media (NCI-CM). […]

[1] = tested on: differentiated primary adipocytes; assay: Lipid loss in adipocytes treated with CI-CM (bodipy/DAPI staining); type: cell-based, human; details: 5 days CI-CM, FIG. 42
From the text: FIG. 42 includes six panels showing adipocytes in cultured stained with bodipy to highlight lipids and DAPI to stain nuclei. Lipids are lost in cells treated for 5 days with cachexia (CXA) inducing conditioned media (CM). Lipid loss is inhibited by inhibiting RAGE signaling.
Lipid loss from differentiated primary adipocytes occurs within 5 days of contact with cachexia-inducing conditioned media (FIG. 42A). This loss is inhibited in adipocytes treated with Rage inhibitors, anti-RAGE monoclonal antibody AF1145 or Tramatenib. This phenotypic response is also seen in melanoma cells.
The effects of treatment with RAGE blocking antibodies and Tremetinib are shown (FIG. 42).

human muscle cells = assay: Testing of secreted proteins/cytokines for induction of the L1000 cachexia signature in muscle cells; type: cell-based; details: in vitro systems described
Method: FIG. 32 are graphs showing cytokine abundance relative to cachexia in patient plasma and conditioned media. Human cytokines (300 on cytokine array) in muscle were tested. None of the expected “usual suspect” cytokines induced the cachectic phenotype or gene expression signature in human muscle cells. IL6, INHBA, IFNG, IL10, IL1, TNFa was assayed in patient plasma and conditioned media.
FIG. 33 is a graph showing testing of human cytokines for induction of cancer cachexia signature. For some the enrichment score was weak (e.g., 1.25).
A faithful read-out of the cachectic phenotype was also developed using a novel high-throughput, low-cost gene expression profiling method (L1000) (FIG. 5). L1000 involves the profiling of 1000 human transcripts from which the remainder of the transcriptome can be computationally inferred. This method, validated in over 1 million samples, allowed for profiling of small numbers of cells grown in 384-well plates.
Therefore, it is likely that the major cachexia-inducing factors were yet to be discovered.

Molecule: Nc1ccn([C@@H]2O[C@H](CO)[C@@H](O)C2(F)F)c(=O)n1 [Gemcitibine]
- pancreatic cancer cell numbers (CellTiter Glo) (pancreatic cancer cells): reduction

Molecule: O=C(NOCC1CC1)c1ccc(F)c(F)c1Nc1ccc(I)cc1Cl [PD184352]
- CI-CM stimulated phosphorylation of ERK (MEK/ERK): blocked
- MEK/ERK activation (pMEK, pERK) by cachexia stimuli in CI-CM (MEK/ERK): inhibited
- cachectic induced loss of myosin heavy chain (MyoHC) protein (HSkM cells; HSkM cells with media conditioned by MkN1 and G361 cells, low-dose, dose curve, FIG. 21): blocks loss of MyoHC; also recorded: block

Molecule: O=C(Nc1ccc2[nH]nc(-c3ccncc3)c2c1)C1CCN(CC(=O)N2CCN(c3ccc(-c4ncccn4)cc3)CC2)C1 (stereo not drawn) [SCH772984]
- reversal of cachectic induced loss of myosin heavy chain (MyoHC) (HSkM cells; HSkM cells pre-treated (2 days) or not with CI-CM, dose response, FIG. 22): can reverse the MyoHC loss at a certain dose, beyond which the benefit is lost; also recorded: (partially) reverse; also recorded: reduced in a dose-dependent manner

Molecule: CC(=O)Nc1cccc(-n2c(=O)n(C3CC3)c(=O)c3c(Nc4ccc(I)cc4F)n(C)c(=O)c(C)c32)c1 [trametinib, N-[3-[3-Cyclopropyl-5-[(2-fluoro-4-iodophenyl)amino]-3,4,6,7-tetrahydro-6,8-dimethyl-2,4,7-trioxopyrido[4,3-d]pyrimidin-1(2H)-yl]phenyl]acetamide]
- CI-CM stimulated phosphorylation of ERK (MEK/ERK): blocked
- MEK/ERK activation (pMEK, pERK) by cachexia stimuli in CI-CM (MEK/ERK): inhibited
- lipid loss from adipocytes caused by cachexia-inducing conditioned media ([1]; listed as Tramatenib): inhibited
- lipid loss from adipocytes caused by cachexia-inducing conditioned media ([1]; listed as Tremetinib): block the loss of lipid

Molecule: Activin
- induction of the cachexia signature (human muscle cells): none of them strongly induced the cachexia signature

Molecule: IFNγ: secreted protein tested as candidate cachexia-inducing protein
- induction of the cachexia signature (human muscle cells): none of them strongly induced the cachexia signature

Molecule: IL-6: secreted protein tested as candidate cachexia-inducing protein
- induction of the cachexia signature (human muscle cells): none of them strongly induced the cachexia signature

Molecule: Myostatin: secreted protein tested as candidate cachexia-inducing protein
- induction of the cachexia signature (human muscle cells): none of them strongly induced the cachexia signature

Molecule: TNFα
- induction of the cachexia signature (human muscle cells): none of them strongly induced the cachexia signature

B1: IL-10: secreted protein tested as candidate cachexia-inducing protein (protein, UniProt P22301 19-178, looked up)
Interleukin-10: SPGQGTQSENSCTHFPGNLPNMLRDLRDAFSRVKTFFQMKDQLDNLLLKESLLEDFKGYLGCQALSEMIQFYLEEVMPQAENQDPDIKAHVNSLGENLKTLRLRLRRCHRFLPCENKSKAVEQVKNAFNKLQEKGIYKAMSEFDIFINYIEAYMTMKIRN
- induction of the cachexia signature (human muscle cells): none of them strongly induced the cachexia signature
